Results as given in patent US20140329905A1, “HISTONE DEACETYLASE 10-INHIBITOR CO-TREATMENT IN CANCER” (Deutsches Krebsforschungszentrum, priority 2011, published 2014).
Read-outs that look alike come from different tables or passages of the source. Peptide text beside a SMILES is read from it. * marks the point of attachment. Cbz = O=C(OCc1ccccc1)*; CH2F = FC*

Legend:
BE(2)-C cells [1] = assay: Caspase-3-like protease (DEVD-ase) activity assay; type: cell-based, human; details: 6 d after HDAC10 siRNA; z-VAD 20 μM, 3-MA 2 mM
Procedure: Caspase-3-like protease activity assay. Caspase-3-like protease activity was measured with the Caspase-3 Fluorometric Assay (BioVision) according to the manufacturer's protocol modified as described previously (Oehme et al. (2006), op. cit.). For cell death detection adherent as well as floating cells were collected.

BE(2)-C cells [2] = assay: Acridine orange FACS quantification of acidic lysosomes; type: cell-based, human; details: for accumulation of acidic lysosomes (red fluorescence) by a panel of HDAC inhibitors: FIG. 1B, each inhibitor at its applied concentration (Table 1)
Procedure: For quantification of acidic lysosomes, the amount of green respectively red fluorescence was determined, since the acidification of (auto-)lysosomes causes a shift from green to red fluorescence. […] Therefore, the cytoplasm and nucleolus glow bright green, whereas acidic compartments shine bright red. By comparing the mean red-to-green fluorescence ratio within different cell populations, detection and quantification of the acidic compartment is possible. Cells were stained with phenol red-free medium containing 1 μg/ml acridine orange (Sigma) at 37° C. for 30 min, collected and resuspended in 300 μl phenolred-free medium for FACS analysis.

HDAC10 [3] = target: T1, HDAC10 (Homo sapiens, UniProt Q969S8); details: read-out: IC50 HDAC10 from literature; cited from earlier work
T1 construct: Reaction Biology Corporation
T1 sequence (Q969S8 1-669): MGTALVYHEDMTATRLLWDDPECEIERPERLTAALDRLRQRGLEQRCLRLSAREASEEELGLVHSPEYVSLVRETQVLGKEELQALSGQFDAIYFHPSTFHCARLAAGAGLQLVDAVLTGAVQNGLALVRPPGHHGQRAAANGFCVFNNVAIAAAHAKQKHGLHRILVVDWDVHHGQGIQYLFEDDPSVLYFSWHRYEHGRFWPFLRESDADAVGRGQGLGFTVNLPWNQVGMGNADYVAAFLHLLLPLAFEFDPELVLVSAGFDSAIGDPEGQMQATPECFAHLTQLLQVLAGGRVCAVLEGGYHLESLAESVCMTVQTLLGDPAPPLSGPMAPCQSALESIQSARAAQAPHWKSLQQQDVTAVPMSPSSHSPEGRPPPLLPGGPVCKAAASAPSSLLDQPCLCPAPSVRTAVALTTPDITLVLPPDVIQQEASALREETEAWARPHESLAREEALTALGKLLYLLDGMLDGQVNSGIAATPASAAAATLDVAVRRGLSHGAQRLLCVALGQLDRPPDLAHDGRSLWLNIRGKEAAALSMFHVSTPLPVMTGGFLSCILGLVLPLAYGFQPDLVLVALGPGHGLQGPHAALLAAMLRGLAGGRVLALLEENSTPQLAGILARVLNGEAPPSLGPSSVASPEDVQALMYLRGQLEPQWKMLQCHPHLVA

[4] = system: Neuroblastoma cells, medulloblastoma cells (BE(2)-C, Kelly, IMR32, Med8A); assay: WST-1 metabolic activity assay, tumor cells; type: cell-based, human; details: FIG. 13E; bufexamac 30 μM 6 d, co-treated with low-dose doxorubicin 72 h before assay
Procedure: (§1) WST-1 Assay. Metabolic activity was determined using the colorimetric WST-1 assay kit from Roche (Mannheim, Germany) as described in the manufacturer's manual.

astrocytes = assay: Acridine orange FACS quantification of acidic lysosomes; type: cell-based; details: FIG. 1D; human astrocytes, compared with neuroblastoma cells
Procedure: For quantification of acidic lysosomes, the amount of green respectively red fluorescence was determined, since the acidification of (auto-)lysosomes causes a shift from green to red fluorescence. Acridine orange accumulates in lysosomal particles and the quenching of its fluorescence correlates with the DpH across the lysosomal membrane (Moriyama, Y, Takano, T and Ohkuma, S, (1982) Acridine orange as a fluorescent probe for lysosomal proton pump. J Biochem 92: 1333-6). Therefore, the cytoplasm and nucleolus glow bright green, whereas acidic compartments shine bright red. By comparing the mean red-to-green fluorescence ratio within different cell populations, detection and quantification of the acidic compartment is possible. Cells were stained with phenol red-free medium containing 1 μg/ml acridine orange (Sigma) at 37° C. for 30 min, collected and resuspended in 300 μl phenolred-free medium for FACS analysis. The green (510-530 nm) and the red (>650 nm) fluorescent emission of living cells, stimulated with blue laser (488 nm), were measured with FACSCalibur (Becton Dickinson, San José, Calif.) and analyzed with CellQuest Pro.

BE(2)-C cells [5] = assay: WST-1 metabolic activity assay; type: cell-based, human
Procedure: as §1

BE(2)-C cells [6] = assay: ROS detection with CM-H2DCFDA by flow cytometry; type: cell-based, human; details: for effect on ROS production by HDAC10 targeting: 72 h after HDAC10 siRNA transfection
Procedure: ROS generation was quantified using CM-H2DCFDA (Molecular Probes) according to the manufacturer's instructions. Cells were incubated for 20 min with 5 μM dye and fluorescence intensity was measured with FACSCalibur and analyzed with CellQuest Pro.

Kelly cells = assay: WST-1 metabolic activity assay; type: cell-based, human; details: NAC on day 4 and 5, measured day 6
Procedure: as §1

HDAC10 [7] = target: T1, HDAC10; assay: In vitro HDAC10 activity assay by Reaction Biology Corporation; type: biochemical; details: read-out: IC50 HDAC10 from RBC
From the text: The inhibitory activity of compounds toward HDAC10 was investigated by Reaction Biology Corporation (Malvern, Pa., USA).

BE(2)-C cells [8] = assay: Cell death by trypan blue staining; type: cell-based, human; details: FIG. 13A; 0.01, 0.05, 0.1 μg/ml; 24, 48, 72 h; among BE(2)-C, Kelly, IMR32
Procedure: (§2) Viability assay. Trypsinized cells were pooled with corresponding supernatant, centrifuged and resuspended in 1.5 ml cell culture media. Cell viability was measured by automated trypan blue staining with Vi-Cell XR Cell Viability Analyzer from Beckman Coulter (Krefeld, Germany).

IMR32 cells = assay: Cell death by trypan blue staining; type: cell-based, human; details: FIG. 13A, 0.01, 0.05, 0.1 μg/ml, 24, 48, 72 h, among BE(2)-C, Kelly
Procedure: as §2

BE(2)-C cells [9] = assay: Western blot of p62 protein levels (autophagic flux); type: cell-based, human; details: FIG. 13C; high-dose doxorubicin 0.5 μg/ml, 48 h
Procedure: Western blot analysis was performed as described previously (Oehme et al. (2009), op. cit.). The following antibodies were used: anti-HDAC10 (Sigma), anti-LC3 (Sigma), anti-HDAC6 (Cell Signaling), anti-p62/SQSTM1 (MLB), anti-Hsc70 (Santa Cruz), anti-FLAG-M2 (Sigma) anti-GAPDH (Millipore), anti-Ac-Lysine (rabbit, Cell Signaling) and anti-β-Actin (clone AC-15, Sigma). β-Actin expression served as loading control. Ratios were calculated with the Bio-1D (Version 12.10a) Software. Protein extracts from primary neuroblastoma tumors from patients with the following characteristics were used: NB#1: […], stage 1, MYCN single copy. NB#2: […], stage 1, MYCN single copy. NB#3: […], stage 4, MYCN single copy. NB#4: […], stage 4, MYCN single copy.

## Cn1cnc(=N)c2[nH]cnc21 [3-MA]
BE(2)-C cells [1]
  effect on HDAC10-knockdown mediated apoptosis (caspase-3 like activity): did not affect the induction of cell death upon targeting of HDAC10

## CO/C1=C\C(C)=C\[C@@H](C)[C@@H](O)[C@@H](C)C/C(C)=C/C=C/[C@H](OC)[C@@H]([C@@H](C)[C@@H](O)[C@H](C)[C@@]2(O)C[C@@H](O)[C@H](C)[C@@H](C(C)C)O2)OC1=O [Bafilomycin A1]
BE(2)-C cells [2]; FIG. 2, co-treatment Baf.A 10 nM with TSA 75 nM
  effect on TSA-induced shift to red fluorescence: inhibited the TSA-induced shift to red fluorescence
BE(2)-C cells [2]; FIG. 4A, Baf. A 10 nM, HDAC10 siRNA
  effect on lysosome acidification induced by HDAC10 knockdown: blocked lysosome acidification induced by HDAC10 knockdown

## CCCCOc1ccc(CC(=O)NO)cc1 [Bufexamac, 2-(4-butoxyphenyl)-N-hydroxyacetamide]
HDAC10 [3]
  IC50: 12.3 µM
[4]
  metabolic activity (WST-1): significantly decreased metabolic activity
astrocytes
  shift to red fluorescence (acidic lysosomes): very moderate shift to red fluorescence
BE(2)-C cells [5]; BE(2)C cells
  effect of bufexamac in NB cells compared to the knockdown of HDAC10 expression: rather low
BE(2)-C cells [5]; FIG. 9E, bufexamac 100 μM 3 days, co-treated with doxorubicin 0.1 μg/ml 24 h before assay
  metabolic activity (WST-1): strongly reduced metabolic activity
BE(2)-C cells [2]; BE(2)-C
  accumulation of acidic lysosomes (red fluorescence) by a panel of HDAC inhibitors: significant increase in red fluorescence

## CCN(CC)CCCC(C)Nc1ccnc2cc(Cl)ccc12 (centres unmarked) [Chloroquine]
BE(2)-C cells [2]; FIG. 2, FIG. 5C, BE(2)-C, chloroquine 25 μM, rapamycin 100 nM
  induction of acidic lysosomes and late endosomes: served as positive controls for the induction of acidic lysosomes and late endosomes

## CC(=O)N(O)CCCCCNC(=O)CCC(=O)N(O)CCCCCNC(=O)CCC(=O)N(O)CCCCCN [DFO]
BE(2)-C cells [6]
  effect on ROS production by HDAC10 targeting: inhibited

## CC(=O)N[C@@H](CS)C(=O)O [NAC]
BE(2)-C cells [6]
  effect on ROS production by HDAC10 targeting: inhibited
BE(2)-C cells [5]; BE(2)-C, NAC on day 4 and 5, measured day 6
  viability (metabolic activity) upon HDAC10 knockdown: restored viability of NB cells
Kelly cells
  viability (metabolic activity) upon HDAC10 knockdown: restored viability of NB cells

## CN(C)Cc1c(C(=O)NCCOc2ccc(C(=O)NO)cc2)oc2ccccc12 [PCI-24781, 3-(dimethylaminomethyl)-N-[2-[4-(hydroxycarbamoyl)-phenoxy]ethyl]-1-benzofuran-2-carboxamide]
BE(2)-C cells [2]; BE(2)-C
  accumulation of acidic lysosomes (red fluorescence) by a panel of HDAC inhibitors: significant increase in red fluorescence

## COc1ccc(Cn2ccc3ccc(C(=O)NO)cc32)cc1 [PCI-34051]
BE(2)-C cells [2]; BE(2)-C
  accumulation of acidic lysosomes (red fluorescence) by a panel of HDAC inhibitors: did not

## Cc1[nH]c2ccccc2c1CCNCc1ccc(/C=C/C(=O)NO)cc1 [Panobinostat (LBH589), (2E)-N-hydroxy-3-[4-({[2-(2-methyl-1H-indol-3-yl)ethyl]amino}methyl)phenyl]acrylamide]
BE(2)-C cells [2]; BE(2)-C
  accumulation of acidic lysosomes (red fluorescence) by a panel of HDAC inhibitors: significant increase in red fluorescence

## CC(C=CC(=O)NO)=CC(C)C(=O)c1ccc(N(C)C)cc1 (centres unmarked) [TSA, 7-[4-(dimethylamino)phenyl]-N-hydroxy-4,6-dimethyl-7-oxohepta-2,4-dienamide]
BE(2)-C cells [6]; TSA 75 nM, 24 h
  ROS generation: TSA-induced ROS generation
BE(2)-C cells [2]; BE(2)-C
  accumulation of acidic lysosomes (red fluorescence) by a panel of HDAC inhibitors: significant increase in red fluorescence

## O=C(CCCCCCC(=O)Nc1ccc([C@H]2O[C@@H](CSc3nc(-c4ccccc4)c(-c4ccccc4)o3)C[C@@H](c3ccc(CO)cc3)O2)cc1)NO [Tubacin]
BE(2)-C cells [2]; BE(2)-C
  accumulation of acidic lysosomes (red fluorescence) by a panel of HDAC inhibitors: did not increase the amount of red fluorescent cells

## CCCC(CCC)C(=O)O [VPA, valproic acid]
HDAC10 [7]
  IC50: > 10000 µM
BE(2)-C cells [2]; BE(2)-C
  accumulation of acidic lysosomes (red fluorescence) by a panel of HDAC inhibitors: did not increase the amount of red fluorescent cells

## O=C(CCCCCCC(=O)Nc1ccccc1)NO [Vorinostat (SAHA), N-hydroxy-N′-phenyl-octanediamide]
BE(2)-C cells [2]; BE(2)-C
  accumulation of acidic lysosomes (red fluorescence) by a panel of HDAC inhibitors: significant increase in red fluorescence

## COc1cccc2c1C(=O)c1c(O)c3c(c(O)c1C2=O)C[C@@](O)(C(=O)CO)C[C@@H]3O[C@H]1C[C@H](N)[C@H](O)[C@H](C)O1 [doxorubicin]
BE(2)-C cells [8]
  sensitivity towards doxorubicin treatment (cell death, % trypan blue positive): highest resistance
IMR32 cells
  sensitivity towards doxorubicin treatment (cell death, % trypan blue positive): highest sensitivity
BE(2)-C cells [9]
  autophagic flux, measurable by p62 degradation: enhanced autophagic flux

## CN1C(=O)C(Cc2c[nH]c3ccccc23)NC1=S (centres unmarked) [necrostatin]
BE(2)-C cells [5]; 6 d post-transfection, necrostatin 50 μM in combination with z-VAD 20 μM
  viability (metabolic activity) upon HDAC10 knockdown: completely rescue

## CC(NC(=O)C(NC(=O)OCc1ccccc1)C(C)C)C(=O)NC(CC(=O)O)C(=O)CF (stereo not drawn) [zVAD] (Cbz-Val-Ala-Asp-CH2F; configuration not given here)
BE(2)-C cells [1]
  effect on HDAC10-knockdown mediated apoptosis (caspase-3 like activity): abolished HDAC10-knockdown mediated induction of apoptosis
BE(2)-C cells [5]; 6 d post-transfection, z-VAD 20 μM on day 4 and 5
  viability (metabolic activity) upon HDAC10 knockdown: partly restored viability
